Data: patent publication US20210267204A1, “MICROBIOCIDAL OXADIAZOLE DERIVATIVES” (SYNGENTA CROP PROTECTION AG, priority 2018, published 2021)

Columns and labels:
[1] = system: Puccinia recondita f. sp. tritici; test: Fungicidal activity against Puccinia recondita f. sp. tritici / wheat / leaf disc preventative (brown rust); type: in vivo; conditions: foliar, 200 ppm in the applied formulation, wheat leaf segments cv. Kanzler, inoculated 1 day after application, assessed 7 to 9 days after application, compared to untreated, read-out: disease control
Method: Leaf disks or leaf segments of various plant species are cut from plants grown in a greenhouse. The cut leaf disks or segments are placed in multiwell plates (24-well format) onto water agar. The leaf disks are sprayed with a test solution before (preventative) or after (curative) inoculation. Compounds to be tested are prepared as DMSO solutions (max. 10 mg/mL) which are diluted to the appropriate concentration with 0.025% Tween20 just before spraying. The inoculated leaf disks or segments are incubated under defined conditions (temperature, relative humidity, light, etc.) according to the respective test system. A single evaluation of disease level is carried out 3 to 14 days after inoculation, depending on the pathosystem. Percent disease control relative to the untreated check leaf disks or segments is then calculated. Wheat leaf segments cv. Kanzler were placed on agar in multiwell plates (24-well format) and sprayed with the formulated test compound diluted in water. The leaf disks were inoculated with a spore suspension of the fungus 1 day after application. The inoculated leaf segments were incubated at 19° C. and 75% relative humidity (rh) under a light regime of 12 hours light/12 hours darkness in a climate cabinet and the activity of a compound was assessed as percent disease control compared to untreated when an appropriate level of disease damage appears in untreated check leaf segments (7 to 9 days after application). The following compounds at 200 ppm in the applied formulation give at least 80% disease control in this test when compared to untreated control leaf disks under the same conditions, which show extensive disease development.

[2] = system: Glomerella lagenarium (Colletotrichum lagenarium); test: Fungicidal activity against Glomerella lagenarium (Colletotrichum lagenarium) liquid culture / cucumber / preventative (anthracnose); type: cell-based; conditions: Colletotrichum orbiculare; 20 ppm in the applied formulation; liquid culture in PDB, 24° C.; 3 to 4 days after application; compared to untreated control; read-out: disease control (inhibition of growth measured photometrically)
Method: Mycelia fragments or conidia suspensions of a fungus prepared either freshly from liquid cultures of the fungus or from cryogenic storage, are directly mixed into nutrient broth. DMSO solutions of the test compound (max. 10 mg/mL) are diluted with 0.025% Tween20 by a factor of 50 and 10 μL of this solution is pipetted into a microtiter plate (96-well format). The nutrient broth containing the fungal spores/mycelia fragments is then added to give an end concentration of the tested compound. The test plates are incubated in the dark at 24° C. and 96% relative humidity (rh). The inhibition of fungal growth is determined photometrically after 2 to 7 days, depending on the pathosystem, and percent antifungal activity relative to the untreated check is calculated. Conidia of the fungus from cryogenic storage are directly mixed into nutrient broth (PDB—potato dextrose broth). After placing a (DMSO) solution of test compound into a microtiter plate (96-well format), the nutrient broth containing the fungal spores is added. The test plates are incubated at 24° C. and the inhibition of growth is measured photometrically 3 to 4 days after application. The following compounds at 20 ppm in the applied formulation give at least 80% disease control in this test when compared to untreated control under the same conditions, which show extensive disease development.

Phakopsora pachyrhizi = test: Fungicidal activity against Phakopsora pachyrhizi / soybean / leaf disc preventative (Asian soybean rust); type: in vivo; conditions: foliar, 200 ppm in the applied formulation, soybean leaf disks, inoculated one day after application, assessed 12 to 14 days after application, compared to untreated, read-out: disease control
Method: Leaf disks or leaf segments of various plant species are cut from plants grown in a greenhouse. The cut leaf disks or segments are placed in multiwell plates (24-well format) onto water agar. The leaf disks are sprayed with a test solution before (preventative) or after (curative) inoculation. Compounds to be tested are prepared as DMSO solutions (max. 10 mg/mL) which are diluted to the appropriate concentration with 0.025% Tween20 just before spraying. The inoculated leaf disks or segments are incubated under defined conditions (temperature, relative humidity, light, etc.) according to the respective test system. A single evaluation of disease level is carried out 3 to 14 days after inoculation, depending on the pathosystem. Percent disease control relative to the untreated check leaf disks or segments is then calculated. Soybean leaf disks are placed on water agar in multiwell plates (24-well format) and sprayed with the formulated test compound diluted in water. One day after application leaf discs are inoculated by spraying a spore suspension on the lower leaf surface. After an incubation period in a climate cabinet of 24-36 hours in darkness at 20° C. and 75% rh leaf disc are kept at 20° C. with 12 hours light/day and 75% rh. The activity of a compound is assessed as percent disease control compared to untreated when an appropriate level of disease damage appears in untreated check leaf disks (12 to 14 days after application). The following compounds at 200 ppm in the applied formulation give at least 80% disease control in this test when compared to untreated control leaf disks under the same conditions, which show extensive disease development.

[3] = system: Puccinia recondita f. sp. tritici; test: Fungicidal activity against Puccinia recondita f. sp. tritici / wheat / leaf disc curative (brown rust); type: in vivo; conditions: foliar, 200 ppm in the applied formulation, wheat leaf segments cv. Kanzler, applied 1 day after inoculation, assessed 6 to 8 days after application, compared to untreated, read-out: disease control
Method: Leaf disks or leaf segments of various plant species are cut from plants grown in a greenhouse. The cut leaf disks or segments are placed in multiwell plates (24-well format) onto water agar. The leaf disks are sprayed with a test solution before (preventative) or after (curative) inoculation. Compounds to be tested are prepared as DMSO solutions (max. 10 mg/mL) which are diluted to the appropriate concentration with 0.025% Tween20 just before spraying. The inoculated leaf disks or segments are incubated under defined conditions (temperature, relative humidity, light, etc.) according to the respective test system. A single evaluation of disease level is carried out 3 to 14 days after inoculation, depending on the pathosystem. Percent disease control relative to the untreated check leaf disks or segments is then calculated. Wheat leaf segments cv. Kanzler are placed on agar in multiwell plates (24-well format). The leaf segments are then inoculated with a spore suspension of the fungus. Plates were stored in darkness at 19° C. and 75% relative humidity. The formulated test compound diluted in water was applied 1 day after inoculation. The leaf segments were incubated at 19° C. and 75% relative humidity under a light regime of 12 hours light/12 hours darkness in a climate cabinet and the activity of a compound was assessed as percent disease control compared to untreated when an appropriate level of disease damage appears in untreated check leaf segments (6 to 8 days after application). The following compounds at 200 ppm in the applied formulation give at least 80% disease control in this test when compared to untreated control leaf disks under the same conditions, which show extensive disease development.

| SMILES | pest or weed control at 200 ppm [1] | inhibition at 20 ppm [2] | pest or weed control at 200 ppm (Phakopsora pachyrhizi) | pest or weed control at 200 ppm [3] | melting point |
| --- | --- | --- | --- | --- | --- |
| CNC(=S)c1cnn(C(C)c2ccc(-c3noc(C(F)(F)F)n3)s2)c1 (stereo not drawn) [Compound 1.9, N-methyl-1-[1-[5-[5-(trifluoromethyl)-1,2,4-oxadiazol-3-yl]-2-thienyl]ethyl]pyrazole-4-carbothioamide] | ≥ 80% | ≥ 80% | ≥ 80% | ≥ 80% | – |
| CNC(=S)c1ncnn1Cc1ccc(-c2noc(C(F)(F)F)n2)s1 [Compound 1.5, N-methyl-2-[[5-[5-(trifluoromethyl)-1,2,4-oxadiazol-3-yl]-2-thienyl]methyl]-1,2,4-triazole-3-carbothioamide] | ≥ 80% | ≥ 80% | ≥ 80% | ≥ 80% | 86 to 95 °C |
| CCCNC(=S)c1nccn1Cc1ccc(-c2noc(C(F)(F)F)n2)s1 [Compound 1.15, N-propyl-1-[[5-[5-(trifluoromethyl)-1,2,4-oxadiazol-3-yl]-2-thienyl]methyl] imidazole-2-carbothioamide] | ≥ 80% | ≥ 80% | ≥ 80% | ≥ 80% | – |
| CNC(=S)c1ncnn1Cc1ccc(-c2noc(C(F)(F)F)n2)cc1 [Compound 1.4, N-methyl-2-[[4-[5-(trifluoromethyl)-1,2,4-oxadiazol-3-yl]phenyl]methyl]-1,2,4-triazole-3-carbothioamide] | ≥ 80% | ≥ 80% | ≥ 80% | ≥ 80% | – |
| COCC(=S)NCc1cnn(Cc2ccc(-c3noc(C(F)(F)F)n3)s2)c1 [Compound 1.14, 2-methoxy-N-[[1-[[5-[5-(trifluoromethyl)-1,2,4-oxadiazol-3-yl]-2-thienyl]methyl]pyrazol-4-yl]methyl]thioacetamide] | ≥ 80% | ≥ 80% | ≥ 80% | ≥ 80% | 135.5 to 140.3 °C |
| CN(C)C(=S)c1ncn(Cc2ccc(-c3noc(C(F)(F)F)n3)cc2)n1 [Compound 1.2, N,N-dimethyl-1-[[4-[5-(trifluoromethyl)-1,2,4-oxadiazol-3-yl]phenyl]methyl]-1,2,4-triazole-3-carbothioamide] | ≥ 80% | ≥ 80% | ≥ 80% | ≥ 80% | – |
| CCONC(=S)c1ccn(Cc2ccc(-c3noc(C(F)(F)F)n3)s2)n1 [Compound 1.7, N-ethoxy-1-[[5-[5-(trifluoromethyl)-1,2,4-oxadiazol-3-yl]-2-thienyl]methyl]pyrazole-3-carbothioamide] | ≥ 80% | ≥ 80% | ≥ 80% | ≥ 80% | – |
| CNC(=S)c1ccn(Cc2ccc(-c3noc(C(F)(F)F)n3)s2)n1 [Compound 1.6, N-methyl-1-[[5-[5-(trifluoromethyl)-1,2,4-oxadiazol-3-yl]-2-thienyl]methyl]pyrazole-3-carbothioamide] | ≥ 80% | ≥ 80% | ≥ 80% | ≥ 80% | 118 to 122 °C |
| CNC(=S)c1ccnn1Cc1ccc(-c2noc(C(F)(F)F)n2)cc1 [Compound 1.1, N-methyl-2-[[4-[5-(trifluoromethyl)-1,2,4-oxadiazol-3-yl]phenyl]methyl] pyrazole-3-carbothioamide] | ≥ 80% | ≥ 80% | ≥ 80% | ≥ 80% | 159 to 164 °C |
| CN(C)C(=S)c1ncn(Cc2ccc(-c3noc(C(F)(F)F)n3)s2)n1 [Compound 1.8, N,N-dimethyl-1-[[5-[5-(trifluoromethyl)-1,2,4-oxadiazol-3-yl]-2-thienyl]methyl]-1,2,4-triazole-3-carbothioamide] | ≥ 80% | ≥ 80% | ≥ 80% | ≥ 80% | 112 to 118 °C |
| FC(F)(F)c1nc(-c2ccc(Cn3cc(CNC(=S)C4CC4)cn3)s2)no1 [Compound 1.13, N-[[1-[[5-[5-(trifluoromethyl)-1,2,4-oxadiazol-3-yl]-2-thienyl]methyl]pyrazol-4-yl]methyl] cyclopropane carbothioamide] | ≥ 80% | ≥ 80% | ≥ 80% | ≥ 80% | 165.5 to 167 °C |
| FC(F)(F)c1nc(-c2ccc(Cn3ccc(C(=S)NC4CC4)n3)cc2)no1 [Compound 1.3, N-cyclopropyl-1-[[4-[5-(trifluoromethyl)-1,2,4-oxadiazol-3-yl]phenyl]methyl] pyrazole-3-carbothioamide] | ≥ 80% | ≥ 80% | ≥ 80% | ≥ 80% | – |
| FC(F)(F)c1nc(-c2ccc(Cn3ccnc3C(=S)NC3CC3)s2)no1 [Compound 1.11, N-cyclopropyl-1-[[5-[5-(trifluoromethyl)-1,2,4-oxadiazol-3-yl]-2-thienyl]methyl] imidazole-2-carbothioamide] | ≥ 80% | ≥ 80% | ≥ 80% | ≥ 80% | – |
| CC(c1ccc(-c2noc(C(F)(F)F)n2)s1)n1cc(C(=S)N2CCC2)cn1 (stereo not drawn) [Compound 1.10, azetidin-1-yl-[1-[1-[5-[5-(trifluoromethyl)-1,2,4-oxadiazol-3-yl]-2-thienyl]ethyl]pyrazol-4-yl]methanethione] | ≥ 80% | ≥ 80% | ≥ 80% | ≥ 80% | 75 to 83 °C |
